Measurements as given in patent US20250073209A1, “COVALENT TARGETING OF RhoA FOR CANCER THERAPY” (The University of Hong Kong, priority 2023, published 2025).

Legend:
RhoA-GEF interactions = molecular target: T1, RhoA-GEF interactions (Homo sapiens, UniProt P61586); experiment: Co-immunoprecipitation of GST-RhoA with GEF-containing cell lysates; format: biochemical; conditions: GST-RhoA with HEK293T cell lysates
T1 construct: host or cells: GEFs overexpressed in HEK293T lysates
Procedure: 10 μg of purified GST-RhoA was immobilized on Glutathione resin (Pierce) and incubated with CL16 in GTP-exchange buffer (20 mM HEPES, 150 mM NaCl, 5 mM MgCl2, pH 7.4) for 1 hour. Then, the mixture was centrifuged at 700g for 2 min and supernatant was discarded. 120 μg of total cell lysate with overexpression of GEF (Arhgefl p-115, Arhgefl2 LARG DH-PH domain, Arhgef13 Akap Lbc) was added to the resin. The mixture was put on an end-to-end rotator and incubated at 4° C. for 4 hours. The resin was then washed, eluted and subjected to immunoblotting.

[1] = test system: HT29 cells expressing RhoA WT; experiment: Wound healing assay on HT29 cells expressing RhoA WT; format: cell-based, human; conditions: 48 h
Procedure: For wound healing assay, HT29 cells were seeded in 90% confluency, a wound was scratched using a P-20 tip the next day. Cell debris was washed with PBS then aspirated. Then, complete DMEM medium with CL16 or Rhosin with corresponding concentration was added to the cells. Wound closure was recorded every 24 hours under light microscope with 10× objective and measurement of wound area was made by ImageJ.
The effects of CL16 in HT29 cells expressing RhoA WT protein and HT29 cells with RhoA C16 Å knock-in by CRISPR-Cas9 were investigated, respectively, to validate the molecular mechanism of RhoA inhibition and anti-cancer properties from CL16. […] HT29 cells expressing RhoA WT or C16 Å protein were incubated with solvent vehicle, CL16 or Rhosin in complete medium for 24 h. The cells were then washed, lysed, subjected to rhotekin pull-down and immunoblotted. […] Wound healing assay on HT29 cells expressing RhoA WT or C16 Å protein were incubated with solvent vehicle, CL16 or Rhosin in complete medium for 48 h (FIGS. 19A and 19B).

RhoA = RhoA (Homo sapiens, UniProt P61586); experiment: RhoA-GTP rhotekin pull-down, serum starvation-re-stimulation; format: cell-based; set-up: endogenous in cells; host or cells: HCT116, HT29
Procedure: RhoA Pull-Down Activation Assay Biochem Kit (#BK036) was purchased from Cytoskeleton. According to the manufacturer's protocol, total cell lysate (0.5 mg/mL; 300 μL) was added to 7.5 μL of Rhotekin-Rho Binding Domain beads in 0.6 mL tubes. The solution mixture was incubated at 4° C. on an end-to-end rotator for 1 hour. Beads were washed with 500 μL of washing buffer once, then centrifuged at 5000g for 3 min and the supernatant was discarded. RhoA-GTP was then eluted in 2× laemmli buffer and resolved in 10% SDS-PAGE.
GTP loading onto RhoA is critical for the protein activation and mediating downstream signals. In view of the inhibitions of GDP-to-GTP exchange of RhoA by CL16 in vitro as discussed above, effects of CL16 on RhoA biology in colorectal cancer cells were examined. In the serum starvation-re-stimulation experiment, HCT116 cells were grown in serum-free medium with CL16, Rhosin or solvent control for 24 h, followed by stimulation with 10% FBS for 10 min. The cells were then lysed and the RhoA activity was assayed by the level of RhoA-GTP, which is the active form of RhoA. […] HT29 cells were incubated with solvent vehicle, CL16 or Rhosin in complete medium for 24 h. […] Confocal fluorescence images from HCT116 and HT29 cells expressing FRET RhoA-biosensor in the serum starvation-restimulation experiment were taken.

SW620 xenograft = experiment: Mouse SW620 xenograft model; format: in vivo
Procedure: FIG. 7A is a graph showing inhibition of tumor growth by CL16 in mouse HCT116 xenografts through intraperitoneal injection at 10 mg/kg (n=6 per group). FIG. 7B is a graph showing inhibition of tumor growth by CL16 in mouse HT29 xenografts through intraperitoneal injection at 10 mg/kg (n=7). FIG. 7C is a graph showing the body weight of mice with HT29 xenografts throughout the treatment with CL16. FIG. 7D is a graph showing inhibition of tumor growth by CL16 in mouse SW620 xenografts through intraperitoneal injection at 10 mg/kg (n=6 per group). FIG. 7E is a bar graph showing the tumor weight of harvested tumors from the treated mice with SW620 xenografts. FIG. 7F is a graph showing the body weight of mice with SW620 xenografts throughout the treatment with CL16. Statistical analysis using a two-tailed Student's t-test. *P<0.05.
7-week-old mice with weight around 20 g were inoculated subcutaneously with HCT116 (2×10^6 cells per mouse) or HT29 (3×10^6 cells per mouse) cells, in serum-free RMPI or Matrigel in PBS respectively. […] The tumor volume and body weight of the nude mice were measured throughout the treatment. The tumor volume was calculated by the equation: Volume (mm^3)=1×w^2/2, where 1 and w were the length and width of the tumor. At the end of the treatment, the mice were sacrificed and the tumor weight was measured. […]

Sequence of RhoA (P61586 whole entry, the tested form may be a part): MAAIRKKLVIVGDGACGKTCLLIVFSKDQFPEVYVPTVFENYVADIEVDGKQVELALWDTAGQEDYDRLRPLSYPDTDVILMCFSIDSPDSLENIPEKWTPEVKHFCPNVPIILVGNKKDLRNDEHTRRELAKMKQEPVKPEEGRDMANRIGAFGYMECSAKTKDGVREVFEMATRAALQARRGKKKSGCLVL
T1 sequence (P61586 whole entry): as the sequence (P61586 whole entry, the tested form may be a part) above

RhoA interactions with ARHGEF1, LARG DH-PH domain, AKAP13 and ARHGAP4s (RhoA-GEF interactions): disruption of RhoA interactions
RhoA-GTP level compared with Rhosin (RhoA; 10 μM CL16 vs 30 μM Rhosin): lower RhoA-GTP level
cellular RhoA-GTP level after serum stimulation vs solvent control (RhoA; HCT116, serum-free 24 h, 10% FBS 10 min): much lower cellular RhoA-GTP levels
SMILES: O=C(CCl)N1N=C(c2cc3ccccc3o2)CC1c1ccco1 (stereo not drawn) [CL16]
cell migration [1]: decrease in cell migration
body weight, treated vs untreated (SW620 xenograft; SW620 xenografts, FIG. 7F): no observable difference
tumor growth vs vehicle control (SW620 xenograft; nude mice, 10 mg/kg intraperitoneal): significantly inhibited tumor growth
